Entries after “also recorded” stand apart in the source; their conditions may differ. Where two headings read alike, the source gives them in different places.
How the values were obtained:
[1] = tested on: HLA-A1-restricted VMM15 CTL; assay: 4-hour chromium release assay, peptide-pulsed C1R-A1 targets with VMM15 CTL; type: cell-based, human; conditions: for reconstitution of an epitope for VMM15 CTL / recognition by VMM15 CTL: C1R-A1 cells pulsed with synthetic peptide at 0.1 to 10 uM, FIG. 3; for recognition of peptide-pulsed C1R-A1 cells in dose-titration assay: HPLC-purified peptides, FIG. 7; for recognition by VMM15 CTL in peptide screening: screen of tyrosinase peptides matching the HLA-A1 motif, one experiment with 48 peptides; for CTL recognition compared with the wild-type peptide: alanine or serine substituted peptides, FIG. 8
VMM15 CTL = assay: Cold target inhibition assay with VMM15 CTL; type: cell-based, human; conditions: for inhibition of lysis of labeled peptide-pulsed targets by unlabeled targets pulsed with the peptide: VMM15 EBV targets pulsed at 20 μg/ml, effector-to-labeled target ratio 10:1, FIG. 9
Description: FIG. 9. […] (SEQ ID NO:73) for recognition by VMM15 CTL. […] (SEQ ID NO:79), or no peptide, as indicated. Increasing numbers of these various unlabeled targets were pre-incubated with VMM15 CTL for 1 hour at 37° C. Labeled (hot) targets were then added for an additional 4 hour co-culture at a final effector-to-labeled target ratio of 10:1.
(SEQ ID NO:19), and because of the similar dose-titration curves observed for CTL recognition (FIG. […] (SEQ ID NO:19)) of both peptides adopt a similar conformation when bound to HLA-A1. A cold target inhibition assay was performed with peptide-pulsed target cells to test that hypothesis.

VMM12 CTL = assay: 4-hour chromium release assay, peptide-pulsed C1R-A1 targets with VMM12 CTL; type: cell-based, human; conditions: C1R-A1 cells pulsed with peptide at 1 to 0.01 μM; FIG. 4
H-Y specific CTL = conditions: cited from earlier work
[2] = C1R-A1 targets, E:T 25:1, FIG. 8A, read-out: half-maximal lysis, nonamer

Sequence: KCDICTDEY
- reconstitution of an epitope for VMM15 CTL / recognition by VMM15 CTL [1]: reconstitutes an epitope for VMM15 CTL; also recorded: most effective; also recorded: reconstituted
- half-maximal lysis ([1]; Example A1-1): approximately 1 ug/ml
- EC50 ([1]; Example A1-1, read-out: half-maximal lysis): ~1000 nM
- recognition of peptide-pulsed C1R-A1 cells in dose-titration assay ([1]; E:T 25:1): equally reactive
- recognition by VMM15 CTL in peptide screening [1]: recognized

Sequence: DAEKSDICTDEY [dodecamer with serine replacing the more N-terminal cysteine]
- inhibition of lysis of labeled peptide-pulsed targets by unlabeled targets pulsed with the peptide (VMM15 CTL): competes

Sequence: DAEKCDICTDEY
- inhibition of lysis of peptide-pulsed targets by cold wild-type VMM15 tumor cells (VMM15 CTL; targets pulsed with peptide at 50 μg/ml): can be inhibited
- reconstitution of an epitope for VMM12 CTL (VMM12 CTL): reconstituted an epitope for these VMM12 CTL, although weakly
- reconstitution of an epitope for VMM15 CTL / recognition by VMM15 CTL [1]: recognized; also recorded: reconstituted
- EC50 ([1]; C1R-A1 targets, E:T 10:1, FIG. 8B, read-out: half-maximal sensitization of target cells for lysis, dodecamer): 10000 nM
- recognition by VMM15 CTL in peptide screening [1]: recognized

Sequence: FIDSYICQV
- effect of cysteinylation of the cysteine on recognition (H-Y specific CTL): improving recognition by one clone, and reducing recognition by another

Sequence: KCDIATDEY [nonamer with alanine substituted for the cysteine distal to the N-terminus]
- CTL recognition compared with the wild-type peptide [1]: not discernibly more effective than the wild-type peptide

Sequence: KADICTDEY [nonamer with alanine replacing the cysteine at position 2]
- EC50 [1, 2]: 20 nM
- CTL recognition compared with the wild-type peptide [1]: significantly greater recognition

Sequence: KCDISTDEY [nonamer with serine substituted for the cysteine distal to the N-terminus]
- CTL recognition compared with the wild-type peptide [1]: not discernibly more effective than the wild-type peptide

Sequence: DAEKADICTDEY [dodecamer with alanine replacing the cysteine at position 5]
- EC50 ([1]; C1R-A1 targets, E:T 10:1, FIG. 8B, read-out: half-maximal lysis, dodecamer): ~100 nM
- CTL recognition compared with the wild-type peptide [1]: significantly greater recognition

Sequence: KSDICTDEY [nonamer with serine replacing the cysteine at position 2]
- inhibition of lysis of labeled peptide-pulsed targets by unlabeled targets pulsed with the peptide (VMM15 CTL): similarly inhibited
- EC50 [1, 2]: 2 nM
- CTL recognition compared with the wild-type peptide [1]: significantly greater recognition

Sequence: DAEKCDIATDEY [dodecamer with alanine substituted for the cysteine at position 8]
- CTL recognition compared with the wild-type peptide [1]: prevented recognition at every concentration tested

Sequence: EKCDICTDEY
- reconstitution of an epitope for VMM15 CTL / recognition by VMM15 CTL [1]: recognized; also recorded: reconstituted
- recognition of peptide-pulsed C1R-A1 cells in dose-titration assay ([1]; E:T 25:1): equally reactive
- recognition by VMM15 CTL in peptide screening [1]: recognized

Reference: US6558671B1, “Cysteine-depleted peptides recognized by A3-restricted cytotoxic lymphocytes, and uses therefor” (The University of Virginia Patent Foundation, priority 1997, dated 2003)
